According to patent US20230053540A1, “TREATMENT OF LIVER INJURY” (Massachusetts Institute of Technology, priority 2019, published 2023):

System: hepatocytes
Experiment: Seq-Well scRNA-Seq of hepatocytes after APAP overdose (signature scores, DEG vs untreated)
Type: in vivo, mouse
Conditions: A96 vs untreated (UT)

`CC(=O)Nc1ccc(O)cc1` [APAP, acetaminophen] was tested, and the “Ces1d avg_logFC” value was 0.4277, the “Ces1d pct.1” value was 0.977 and the “Chchd10 avg_logFC” value was 0.608. The “Chchd10 pct.1” value was 0.994, the “Chp1 avg_logFC” value was 0.2687 and the “Chp1 pct.1” value was 0.687. For the same compound, the “Cox5a avg_logFC” value was 0.3398, the “Cox5a pct.1” value was 0.813 and the “Cox6a1 avg_logFC” value was 0.2517. The “Cox6a1 pct.1” value was 0.943, the “Cox8a avg_logFC” value was 0.3089 and the “Cox8a pct.1” value was 0.737. For the same compound, the “Cp avg_logFC” value was 0.2826, the “Cp pct.1” value was 0.993 and the “Cpeb4 avg_logFC” value was 0.3418. For the same compound, the “Cpeb4 pct.1” value was 0.527, the “Cpox avg_logFC” value was 0.3326 and the “Cpox pct.1” value was 0.634. For the same compound, the “Cpt1a avg_logFC” value was 0.3742, the “Cpt1a pct.1” value was 0.837 and the “Crat avg_logFC” value was 0.2624. The “Crat pct.1” value was 0.389, the “Creg1 avg_logFC” value was 0.2586 and the “Creg1 pct.1” value was 0.985. For the same compound, the “Crot avg_logFC” value was 0.3326, the “Crot pct.1” value was 0.989 and the “Csde1 avg_logFC” value was 0.2567. For the same compound, the “Csde1 pct.1” value was 0.742, the “Ctage5 avg_logFC” value was 0.3217 and the “Ctage5 pct.1” value was 0.837. For the same compound, the “Cxcl12 avg_logFC” value was 0.3372, the “Cxcl12 pct.1” value was 0.635 and the “Cyp4a10 avg_logFC” value was 1.12. The “Cyp4a10 pct.1” value was 0.974, the “Cyp4a14 avg_logFC” value was 1.601 and the “Cyp4a14 pct.1” value was 0.975. For the same compound, the “D4Wsu53e avg_logFC” value was 0.3032, the “D4Wsu53e pct.1” value was 0.597 and the “D17Wsu92e avg_logFC” value was 0.3581. The “D17Wsu92e pct.1” value was 0.771, the “Ddx3x avg_logFC” value was 0.2899 and the “Ddx3x pct.1” value was 0.701. The “Decr1 avg_logFC” value was 0.3241, the “Decr1 pct.1” value was 0.808 and the “Decr2 avg_logFC” value was 0.3728. For the same compound, the “Decr2 pct.1” value was 0.813, the “Dennd5b avg_logFC” value was 0.2871 and the “Dennd5b pct.1” value was 0.548. The “Dhcr24 avg_logFC” value was 0.3842, the “Dhcr24 pct.1” value was 0.933 and the “Dhdh avg_logFC” value was 0.2837. The “Dhdh pct.1” value was 0.734, the “Dpys avg_logFC” value was 0.2626 and the “Dpys pct.1” value was 0.824. The “Dusp6 avg_logFC” value was 0.3249, the “Dusp6 pct.1” value was 0.476 and the “Ei24 avg_logFC” value was 0.2718. The “Ei24 pct.1” value was 0.667, the “Eif4g2 avg_logFC” value was 0.2838 and the “Eif4g2 pct.1” value was 0.812. For the same compound, the “Elovl5 avg_logFC” value was 0.3232, the “Elovl5 pct.1” value was 0.765 and the “Erbb2ip avg_logFC” value was 0.2553. The “Erbb2ip pct.1” value was 0.561, the “Etfdh avg_logFC” value was 0.2802 and the “Etfdh pct.1” value was 0.811. The “F5 avg_logFC” value was 0.3557, the “Fmo1 avg_logFC” value was 0.264 and the “Fmo1 pct.1” value was 0.606. For the same compound, the “Fth1 avg_logFC” value was 0.3226, the “Fth1 pct.1” value was 0.993 and the “G0s2 avg_logFC” value was 0.2947. The “G0s2 pct.1” value was 0.525, the “Gabarapl1 avg_logFC” value was 0.2984 and the “Gabarapl1 pct.1” value was 0.881. For the same compound, the “Gclc avg_logFC” value was 0.2707, the “Gclc pct.1” value was 0.839 and the “Gclm avg_logFC” value was 0.3282. For the same compound, the “Gclm pct.1” value was 0.865, the “Gfra1 avg_logFC” value was 0.2571 and the “Gfra1 pct.1” value was 0.687. For the same compound, the “Gm2a avg_logFC” value was 0.3164, the “Gm2a pct.1” value was 0.587 and the “Gm13775 avg_logFC” value was −1.05. The “Gm13775 pct.1” value was 0.3, the “Gpld1 avg_logFC” value was 0.3039 and the “Gpld1 pct.1” value was 0.748. For the same compound, the “Grn avg_logFC” value was 0.3731, the “Grn pct.1” value was 0.629 and the “Gsta2 avg_logFC” value was 0.3111. The “Gsta2 pct.1” value was 0.522, the “Gstm3 avg_logFC” value was −0.5668 and the “Gstm3 pct.1” value was 0.23. For the same compound, the “Gstt3 avg_logFC” value was 0.3379, the “Gstt3 pct.1” value was 0.541 and the “Gyk avg_logFC” value was 0.4334. For the same compound, the “Gyk pct.1” value was 0.616, the “Hadh avg_logFC” value was 0.2626 and the “Hadh pct.1” value was 0.774. The “Hamp2 avg_logFC” value was 0.3052 and the “Hamp2 pct.1” value was 0.203.
